Legend:
[1] = Feed efficiency test on domestic fowls; format: in vivo; conditions: 70 days; for The average increase in the body weight during the test period / The average ingested amount of feed during the test period: chickens; for The rate of feed requirement: ingested feed / body weight increase; for The improved ratio of the rate of feed requirement: versus no addition
Procedure: Feed efficiency test on domestic fowls
Domestic fowls tested: species used exclusively for broiler (Aber Acres species) Basal feed:
Method: • Fifty newborn chickens were divided into 5 groups of 10 each in such a way that the average body weight is the same in each group. Premixes of 5057A and 5057B were added to the foregoing basal feed so that the contents of 5057A and 5057B are .40 ppm and 80 ppm, respectively. This feed was administered to the animals over the period of 70 days, and the body weight and the ingested amount of the feed were measured.

[2] = Feed efficiency test on swine; format: in vivo, swine (landrace); conditions: for The rate of feed requirement / The average increase in the body weight during the test period / The average ingested amount of feed during the test period / The improved ratio of the rate of feed requirement: 12 weeks; for The average increase in the body weight during the test period / The average ingested amount of feed during the test period: young pigs; for The improved ratio of the rate of feed requirement: versus no addition; for The total number of days of diarrheal stool in each group / The total number of days during the test period in each group: 6 pigs, period of 4 weeks
Procedure: Feed efficiency test on swine
Method: • Thirty young pigs were divided into 5 groups of 6 each in such a way that the average body weight is the same in each group. To the basal feed were added 0, 25, and 50 ppm each of 5057A and 5057B. The resulting basal feeds were administered over the period of 12 weeks and the body weight and the ingested amount of the feeds were measured. The total number of days that the pigs suffered from diarrhea during the period of 4 weeks was counted.

[3] = Feed efficiency test on a ruminant; format: in vivo, Cattle (Holstein); conditions: 240 days; for The average increase in the body weight during the test period: castrated Holstein oxen; for The improved ratio of the rate of concentrated feed requirement: versus no addition
Procedure: Feed efficiency test on a ruminant Cattle tested: Holstein
Basal feed: • Concentrated feed: [formula]
(§1) Method: • Twenty five castrated Holstein oxen 9 months of age were divided into 5 groups of 5 each in such a way that the average body weight is almost the same in each group. Concentrated basal feeds to which 0, 10, and 20 ppm each of 5057A and 5057B had been added were each administered over the period of 240 days. As a crude feed, 1 kg per animal of straw of rice plants were administered.

[4] = Propionic acid/acetic acid ratio in gastric juice from the rumen of the oxen tested; format: in vivo, Cattle (Holstein); conditions: for The propionic acid concentration/The acetic acid concentration (the average value): rumen gastric juice; for ratio between propionic acid/acetic acid in the gastric juice in the rumen: as compared with the case of no addition
Procedure: as §1
The administration of the feeds to which the present substances had been added improved the utilization rate of the concentrated feed by 10 - 17% and the increased amount of the body weight by 3 - 8%. The gastric juice from the rumen of the oxen tested was collected and measured for the concentrations of acetic and propionic acids, thus the ratio between them being calculated.

Eimeria tenellum = experiment: Preventive and treating activity against coccidiosis in a domestic fowl; format: in vivo; conditions: for Relation rate of the increase in the body weight: noninfection control = 100; for OPG: number of oocysts in 1 g of stool, 7 days after the inoculation; for Death rate: white leghorn chickens inoculated p.o. with oocysts; for preventive and treating activity against coccidiosis: conclusion in text from Table 5
Procedure: The preventive and treating activity against coccidiosis in a domestic fowl Domestic fowls tested: white leghorns Basal feed:
Method: • Fifty male white leghorn chickensl4 days of age were divided into 5 groups of 10 each. To the basal feed were added 50 and 100 ppm each of 5057A and 5057B. Infection with coccidiosis was done by inoculating […] per chicken of spore-forming oocysts of Eimeria tenellum directly p.o. into the crop of the chickens.
Groupsl - 4 were reared with the feeds containing predetermined concentrations of the 5057 substances, starting from 1 day before the inoculation with oocysts. Group 5 is an infection control that was inoculated with oocysts and reared with the basal feed containing no agents tested and Group 6 is a noninfection control. After 7 days after the inoculation with oocysts, the number of oocysts (OPG) in 1 g of stool was counted.

Acute toxicity test = conditions: mouse, in vivo, mice
Procedure: An acute toxicity test was carried out with mice. As a result, the LD50 value of the 5057A and 5057B substances is 50 mg/kg i.p. and 50 mg/kg or more p.o. [drawing 14] [drawing 15]

[5] = 10 ppm, 1 day after the administration
[6] = 10 ppm, 21 days after the administration
[7] = 10 ppm, 56 days after the administration
[8] = 20 ppm, 1 day after the administration
[9] = 20 ppm, 21 days after the administration
[10] = 20 ppm, 56 days after the administration

CCC(C(=O)C(C)C(O)C(C)C1OC(O)(C(C)C(=O)O)C(C)CC1C)C1OC(C)(C2(O)OC(CC)(C(O)CC)CC2C)CC1C (stereo not drawn) [5057B]
The average increase in the body weight during the test period ([1]; 40 ppm in feed): 2.67 kg
The average ingested amount of feed during the test period ([1]; 40 ppm in feed): 5.74 kg
The rate of feed requirement ([1]; 40 ppm in feed): 2.150
The improved ratio of the rate of feed requirement ([1]; 40 ppm in feed): 6.6%
The average increase in the body weight during the test period ([1]; 80 ppm in feed): 2.62 kg
The average ingested amount of feed during the test period ([1]; 80 ppm in feed): 5.67 kg
The rate of feed requirement ([1]; 80 ppm in feed): 2.164
The improved ratio of the rate of feed requirement ([1]; 80 ppm in feed): 6.0%
The rate of feed requirement ([2]; 25 ppm in feed): 2.348
The average increase in the body weight during the test period ([2]; 25 ppm in feed): 47.62 kg
The average ingested amount of feed during the test period ([2]; 25 ppm in feed): 111.8 kg
The improved ratio of the rate of feed requirement ([2]; 25 ppm in feed): 4.6%
The total number of days of diarrheal stool in each group / The total number of days during the test period in each group ([2]; 25 ppm in feed): 18/168
The rate of feed requirement ([2]; 50 ppm in feed): 2.263
The average increase in the body weight during the test period ([2]; 50 ppm in feed): 51.26 kg
The average ingested amount of feed during the test period ([2]; 50 ppm in feed): 116.0 kg
The improved ratio of the rate of feed requirement ([2]; 50 ppm in feed): 8.0%
The total number of days of diarrheal stool in each group / The total number of days during the test period in each group ([2]; 50 ppm in feed): 6/168
The average ingested amount of concentrated feed during the test period ([3]; 10 ppm in concentrated feed): 2406 kg
The rate of concentrated feed requirement ([3]; 10 ppm in concentrated feed): 8.813
The average increase in the body weight during the test period ([3]; 10 ppm in concentrated feed): 273 kg
The improved ratio of the rate of concentrated feed requirement ([3]; 10 ppm in concentrated feed): 11.1%
The average ingested amount of concentrated feed during the test period ([3]; 20 ppm in concentrated feed): 2354 kg
The rate of concentrated feed requirement ([3]; 20 ppm in concentrated feed): 8.289
The average increase in the body weight during the test period ([3]; 20 ppm in concentrated feed): 284 kg
The improved ratio of the rate of concentrated feed requirement ([3]; 20 ppm in concentrated feed): 16.4%
The propionic acid concentration/The acetic acid concentration (the average value) [4, 5]: 0.79
The propionic acid concentration/The acetic acid concentration (the average value) [4, 6]: 0.76
The propionic acid concentration/The acetic acid concentration (the average value) [4, 7]: 0.77
The propionic acid concentration/The acetic acid concentration (the average value) [4, 8]: 0.83
The propionic acid concentration/The acetic acid concentration (the average value) [4, 9]: 1.00
The propionic acid concentration/The acetic acid concentration (the average value) [4, 10]: 0.93
ratio between propionic acid/acetic acid in the gastric juice in the rumen [4]: increases
Relation rate of the increase in the body weight (Eimeria tenellum; 50 ppm in feed): 106%
OPG (Eimeria tenellum; 50 ppm in feed): 0 x 10^4
Death rate (Eimeria tenellum; 50 ppm in feed): 0%
Relation rate of the increase in the body weight (Eimeria tenellum; 100 ppm in feed): 106%
OPG (Eimeria tenellum; 100 ppm in feed): 0 x 10^4
Death rate (Eimeria tenellum; 100 ppm in feed): 0%
preventive and treating activity against coccidiosis (Eimeria tenellum): have a preventive and treating activity against coccidiosis
LD50 (Acute toxicity test; ip): 50 mg/kg
LD50 (Acute toxicity test; po): ≥ 50 mg/kg

CCC(C(=O)C(C)C(O)C(C)C1OC(O)(C(C)C(=O)O)C(C)CC1C)C1OC(C)(C2(O)OC(CC)(C(C)O)CC2C)CC1C (stereo not drawn) [5057A]
The average increase in the body weight during the test period ([1]; 40 ppm in feed): 2.54 kg
The average ingested amount of feed during the test period ([1]; 40 ppm in feed): 5.59 kg
The rate of feed requirement ([1]; 40 ppm in feed): 2.201
The improved ratio of the rate of feed requirement ([1]; 40 ppm in feed): 4.3%
The average increase in the body weight during the test period ([1]; 80 ppm in feed): 2.55 kg
The average ingested amount of feed during the test period ([1]; 80 ppm in feed): 5.63 kg
The rate of feed requirement ([1]; 80 ppm in feed): 2.218
The improved ratio of the rate of feed requirement ([1]; 80 ppm in feed): 4.0%
The rate of feed requirement ([2]; 25 ppm in feed): 2.353
The average increase in the body weight during the test period ([2]; 25 ppm in feed): 45.35 kg
The average ingested amount of feed during the test period ([2]; 25 ppm in feed): 106.7 kg
The improved ratio of the rate of feed requirement ([2]; 25 ppm in feed): 4.3%
The total number of days of diarrheal stool in each group / The total number of days during the test period in each group ([2]; 25 ppm in feed): 21/168
The rate of feed requirement ([2]; 50 ppm in feed): 2.287
The average increase in the body weight during the test period ([2]; 50 ppm in feed): 50.93 kg
The average ingested amount of feed during the test period ([2]; 50 ppm in feed): 116.5 kg
The improved ratio of the rate of feed requirement ([2]; 50 ppm in feed): 7.0%
The total number of days of diarrheal stool in each group / The total number of days during the test period in each group ([2]; 50 ppm in feed): 11/168
The average ingested amount of concentrated feed during the test period ([3]; 10 ppm in concentrated feed): 2413 kg
The rate of concentrated feed requirement ([3]; 10 ppm in concentrated feed): 8.904
The average increase in the body weight during the test period ([3]; 10 ppm in concentrated feed): 271 kg
The improved ratio of the rate of concentrated feed requirement ([3]; 10 ppm in concentrated feed): 10.2%
The average ingested amount of concentrated feed during the test period ([3]; 20 ppm in concentrated feed): 2365 kg
The rate of concentrated feed requirement ([3]; 20 ppm in concentrated feed): 8.446
The average increase in the body weight during the test period ([3]; 20 ppm in concentrated feed): 280 kg
The improved ratio of the rate of concentrated feed requirement ([3]; 20 ppm in concentrated feed): 14.8%
The propionic acid concentration/The acetic acid concentration (the average value) [4, 5]: 0.80
The propionic acid concentration/The acetic acid concentration (the average value) [4, 6]: 0.73
The propionic acid concentration/The acetic acid concentration (the average value) [4, 7]: 0.78
The propionic acid concentration/The acetic acid concentration (the average value) [4, 8]: 0.83
The propionic acid concentration/The acetic acid concentration (the average value) [4, 9]: 0.96
The propionic acid concentration/The acetic acid concentration (the average value) [4, 10]: 0.86
ratio between propionic acid/acetic acid in the gastric juice in the rumen [4]: increases
Relation rate of the increase in the body weight (Eimeria tenellum; 50 ppm in feed): 104%
OPG (Eimeria tenellum; 50 ppm in feed): 0.01 x 10^4
Death rate (Eimeria tenellum; 50 ppm in feed): 0%
Relation rate of the increase in the body weight (Eimeria tenellum; 100 ppm in feed): 103%
OPG (Eimeria tenellum; 100 ppm in feed): 0 x 10^4
Death rate (Eimeria tenellum; 100 ppm in feed): 0%
preventive and treating activity against coccidiosis (Eimeria tenellum): have a preventive and treating activity against coccidiosis
LD50 (Acute toxicity test; ip): 50 mg/kg
LD50 (Acute toxicity test; po): ≥ 50 mg/kg

From patent EP0063238A1, “An efficiency-improving agent for feed and a preventive and treating agent for coccidiosis” (KAKEN PHARMACEUTICAL CO., LTD., priority 1981, dated 1982)
